Results taken from article PMC10838660, “Artificial intelligence-powered discovery of small molecules inhibiting CTLA-4 in cancer” (BJC reports, 2024).

Legend:
[1] = test system: interaction of CTLA-4 with CD80 and CD86; assay: Luciferase reporter assay, CTLA-4 effector Jurkat T cells with Raji antigen-presenting cells; assay type: cell-based, human
Source text: We first evaluated the inhibitory impacts of the compounds against the interaction between CTLA-4 and CD80 using an amplified luminescent proximity homogeneous (Alpha)LISA assay. In this assay, a biotinylated CD80 binds to streptavidin-coated alpha donor beads, while anti-His AlphaLISA acceptor beads capture His-tagged CTLA-4. Upon binding of CD80 to CTLA-4, the donor and acceptor beads draw near, thus excitation of the donor bead leads to the release of singlet oxygen molecules. Consequently, an energy transfer cascade occurs in the acceptor beads, culminating in an intense peak of light emission at 615 nm (Fig. 1a). […] The compounds’ inhibitory activity against CTLA-4 was confirmed through a luciferase reporter assay involving 2 genetically engineered cell lines. First, we developed a CTLA-4 effector cell line using Jurkat T cells expressing human CTLA-4 and a luciferase reporter driven by a native promoter responsive to T-cell receptor (TCR)/CD28 activation. We also managed to establish an adjacent antigen-presenting cell line utilizing Raji cells, which are capable of expressing constitutively active engineered proteins on their surfaces without requiring antigens for effectivity. The Raji cells will also be able to naturally produce endogenous levels of both CD80 as well as CD86 molecules within the target APCs themselves as they transclude from one host to another. […]

[2] = Body weight of treated hCTLA-4 mice; assay type: in vivo; settings: MC38-inoculated hCTLA-4 mice, treated vs control
Source text: (§1) In hCTLA-4 mice, the ECD of the mouse Ctla-4 gene has been replaced with the human counterpart, yet the resulting protein still interacts effectively with mouse CD80 and CD86 [42]. […] Next, we measured the mice’s levels of serum cardiac troponin I type 3 (TNNI3), a marker associated with ipilimumab-induced irAEs. We found elevated serum TNNI3 levels in mice treated with ipilimumab, anti-PD-1, or anti-PD-1 plus D11, but not in mice treated with D11 alone (Fig. 4e). It is unclear why D11 monotherapy appeared to have a protective effect in comparison with anti-PD-1 alone. We also treated 2 human cells lines, HCT116 and MDA-MB231, with D11 and 5-fluorouracil, an antimetabolite drug that is widely used for the treatment of colorectal cancer. […] Thus, it is likely that D11 is weakly toxic to tumor cells and that its antitumor effects are largely due to its regulation of the immune response.
(§2) We next investigated analogs of the 5 anti-CTLA-4 compounds for possible refinement.

[3] = test system: human DCs with allogeneic peripheral blood mononuclear cells; assay: Human DCs cultured with allogeneic PBMCs, flow cytometry; assay type: cell-based
Protocol: CD80 and CD86 on dendritic cells (DCs) interact with CD28 or CTLA-4 on T cells to regulate T-cell activation.
(§3) The ability of compounds to be immunostimulatory was measured by coculturing mouse-derived TILs with MC38 tumors grown in C57BL/6 mice. Tumors were digested using a Tumor Dissociation Kit (Miltenyi Biotec, 130-095-929). After cell isolation, TILs were extracted with a MagniSort Mouse CD45 isolation kit protocol (Invitrogen, 8802-6865-74). TILs were cocultured with MC38 cells for 48 h, and the expression levels of IFN-γ were detected with the AlphaLISA Mouse IFN-γ Detection Kit (PerkinElmer, AL501C). Human DCs and T cells from different patients were prepared and treated as described. For MC38 and human cancer cells treated with compounds, the CellTiter-Glo Luminescent Cell Viability Assay (Promega, G7570) was used to measure the viability.
Flow cytometry was used to measure subcellular populations in tumors. All flow cytometry analyses were performed using either an LSR II flow cytometer (BD Biosciences) or a Northern Lights-3000 flow cytometer (Cytek) and analyzed with FlowJo (Treestar, Inc.). All flow analyses were representative of at least 3 independent experiments using […] CD proteins 4, 8, and 25 (CD4, 116003; CD8, 100707; and CD25, 102011); Foxp3 (126409); and IFN-γ (506506) flow antibodies (Biolegend). Antimouse and antihuman CTLA-4 antibodies were purchased from BioLegend (106313) and Invitrogen (46-1529-42).

MC38 tumors [4] = assay: MC38 tumors in humanized CTLA-4 (hCTLA-4) mice; assay type: in vivo; settings: for development of MC38 tumors: therapeutic, A9 and D11 25 mg/kg
Source text: as §1
Using another cohort of hCTLA-4 mice inoculated with MC38 cells, we treated animals (n = 5 per group) with ipilimumab, anti-PD-1, anti-PD-1 plus D11, D11 alone, or vehicle in the same dosages as used previously. Some animals’ tumors were collected approximately 10 days after the last treatment dose, whereas for the remaining animals, the tumors were allowed to grow (Supplementary Fig. S7). […] Single-cell suspensions from tumors were sorted to obtain CD45^+ immune cells, which were then subjected to single-cell RNA sequencing (scRNAseq) and TCR sequencing. Next, the immune cell populations were compared across the samples (Fig. 5b, c). […] Another interesting observation from the scRNAseq analysis was that the differential expression of membrane-type 1 matrix metalloproteinase, which is known for its role as a key regulator in cell migration in tissues, was associated with D11 treatment. This finding could lead to a possible new mechanism of action, besides macrophage recruitment, to drive the search for anticancer compounds.
as §2
C57BL/6 mice were purchased from the Charles River Laboratories. In hCTLA-4 mice, the exons encoding for the ECD and transmembrane domains of murine CTLA-4 were replaced with the human versions. […] Tumor volumes were calculated with the formula volume = (width^2 × length)/2. Measurements were recorded every 2 to 3 days. […] For the histopathologic analysis of the internal organs harvested from mice that had been treated with therapeutic compounds or control antibodies, stained sections were prepared from the formalin-fixed tissue and were assessed in a blinded fashion.

MC38 tumors [5] = assay: MC38 syngeneic tumors in C57BL/6 mice; assay type: in vivo
Protocol: C57BL/6 mice were purchased from the Charles River Laboratories. In hCTLA-4 mice, the exons encoding for the ECD and transmembrane domains of murine CTLA-4 were replaced with the human versions. All mice were maintained at the Research Animal Facility of Baylor College of Medicine, and all studies were conducted under an animal protocol approved by the Baylor College of Medicine Institutional Animal Care and Use Committee. Mice were challenged with 0.5 million MC38 colorectal cancer cells passaged the previous day at 75% confluence. For the prophylactic model, ipilimumab or small-molecule treatment began 1 day after tumor cell inoculation. For the therapeutic model, ipilimumab or small-molecule treatment was initiated 7 to 17 days after the injection of tumor cells, depending upon when the tumors reached an average size of approximately 100 mm^3. Tumor volumes were calculated with the formula volume = (width^2 × length)/2. Measurements were recorded every 2 to 3 days. For the histologic analyses, the internal organs, including the livers, kidneys, lungs, colons, and salivary glands, were fixed in 10% paraformal-dehyde for at least 24 h, cut from paraffin blocks in […] sections using a Microm HM 315 microtome, and mounted on SuperFrost Plus slides (Roth). Slides were stained with hematoxylin and eosin (Shandon Varistain [24–4] Automatic Stainer). For the histopathologic analysis of the internal organs harvested from mice that had been treated with therapeutic compounds or control antibodies, stained sections were prepared from the formalin-fixed tissue and were assessed in a blinded fashion.

[6] = test system: mouse tumor-infiltrating lymphocytes (TILs); assay: IFN-γ production in mouse TILs cocultured with MC38 tumor cells; assay type: cell-based
Protocol: We examined the ability of these 5 anti-CTLA-4 compounds to stimulate interferon-γ (IFN-γ) production in mouse tumor-infiltrating lymphocytes (TILs). MC38 tumors grown in C57BL/6 mice were extracted to obtain CD45^+ TILs.
as §3

tumor development = test system: tumor development; parameters: method as in PMID 35254416; settings: doses of 2 to 200 mg/kg; cited from earlier work
[7] = test system: CD45+ immune cells from MC38 tumors; assay: Single-cell RNA and TCR sequencing of CD45+ tumor immune cells; assay type: in vivo, hCTLA-4 mice; settings: scRNAseq of CD45+ tumor cells
Source text: Using another cohort of hCTLA-4 mice inoculated with MC38 cells, we treated animals (n = 5 per group) with ipilimumab, anti-PD-1, anti-PD-1 plus D11, D11 alone, or vehicle in the same dosages as used previously. Some animals’ tumors were collected approximately 10 days after the last treatment dose, whereas for the remaining animals, the tumors were allowed to grow (Supplementary Fig. S7). […] Single-cell suspensions from tumors were sorted to obtain CD45^+ immune cells, which were then subjected to single-cell RNA sequencing (scRNAseq) and TCR sequencing. Next, the immune cell populations were compared across the samples (Fig. 5b, c). […]
Tumors from CTLA-4-humanized MC38 syngeneic mice (n = 3–5 mice) were extracted for single-cell suspension using a gentleMACS Octo Dissociator (Miltenyi Biotec). […] The acquired scRNAseq reads from the 10X Genomics platform were aligned to a reference genome (mm10) using Cell Ranger (V.7.1, 10X Genomics) default parameters. The reads and cells were further filtered with Seurat (V.4.0.3) in R (V.4.1.0). […] The clonality of the TCR repertoire was calculated as a 1-Pielou index value using the formula 1+ ∑(i=1 to n) (pi*ln(pi))/ln(n), where pi is the frequency of clone i for a sample of n unique clones; this metric was normalized to the number of unique clones and ranges from 0 to 1. […]

[8] = test system: serum cardiac troponin I type 3 (TNNI3); assay: Serum TNNI3 in treated mice; assay type: in vivo; settings: marker of ipilimumab-induced irAEs
Source text: as §1

[9] = start at approximately 100 mm^3
[10] = prophylactic setting, 25 mg/kg i.p.

Molecule: C/C(=N/OCc1ccccc1)c1nc(-c2ccccc2)[nH]c1C [A9]
- promoter-mediated luminescence (blockade of CTLA-4 with CD80 and CD86) [1]: resulted in promoter-mediated luminescence
- body weight [2]: no significant weight loss
- Tconv (%) ([3]; 10 μM, 6 days): 43.1%
- Treg (%) ([3]; 10 μM, 6 days): 12.4%
- Tconv (%) ([3]; 50 μM, 6 days): 49.6%
- Treg (%) ([3]; 50 μM, 6 days): 20.9%
- Tconv: Treg decrease (human cells) ([3]; Table 3 summary, Human CTLA-4/CD80): Y
- tumor-inhibition activity in hCTLA-4 mice compared with non-humanized C57BL/6 mice (MC38 tumors [4]; mouse, in vivo): superior tumor-inhibition activity
- development of MC38 tumors (MC38 tumors [4]; [9]): substantially inhibited
- numbers of tumor-infiltrating Treg cells (MC38 tumors [5]; 25 mg/kg i.p.): reduced
- MC38 models (MC38 tumors [5]; Table 3 summary, Mouse or human CTLA-4/mouse CD80): Y
- tumor growth after rechallenge with 200,000 MC38 cells (MC38 tumors [5]; mice that completely rejected tumors, vs control group): slower
- animal survival (MC38 tumors [5]; [10]): prolonged animal survival
- complete tumor rejection / complete response (MC38 tumors [5]; [10]): Four of 10
- tumor growth (MC38 tumors [5]; prophylactic setting, 4 200-μg doses (25 mg/kg) i.p. every other day, start 1 day after inoculation): drastically inhibited tumor growth
- tumor growth (MC38 tumors [5]; therapeutic setting, start at tumor volume approximately 100 mm^3): significantly reduced tumor growth
- INF-γ stimulation ex vivo (MC38) ([6]; Table 3 summary, Mouse CTLA-4/CD80): Y

Molecule: Cc1c(Nc2nccc3cc(CN4CC[C@@H](O)C4)cnc23)cccc1-c1cccc(-c2nc3cc(CN4CC[C@@H](C(=O)O)C4)cc(C#N)c3o2)c1C [INCB086550]
- tumor development (tumor development): inhibited tumor development

Molecule: ipilimumab: an anti-CTLA-4 antibody, first immune checkpoint blockade therapy to receive FDA approval [reference compound]
- tumor-infiltrating macrophages [7]: only moderately affected
- promoter-mediated luminescence (blockade of CTLA-4 with CD80 and CD86) [1]: resulted in promoter-mediated luminescence
- Tconv (%) ([3]; 5 μg/ml, 6 days): 42.7%
- Tconv/Treg ratio ([3]; 5 μg/ml, 6 days): 3.44
- Treg (%) ([3]; 5 μg/ml, 6 days): 12.4%
- tumor inhibition / therapeutic efficacy (MC38 tumors [4]; second cohort (Fig. 5a), start at approximately 100 mm^3): inhibited tumors
- development of MC38 tumors (MC38 tumors [4]; [9]): inhibited tumors
- serum TNNI3 levels [8]: elevated
- IFN-γ production ([6]; 3-μg/ml doses): substantially stimulated
